In US4885314A, “Novel HMG-CoA reductase inhibitors” (Merck & Co., Inc., priority 1988, dated 1989):

System: HMG-CoA reductase
Test: in vitro HMG-CoA reductase inhibition (protocol of J. Med. Chem., 1985, 28, page 347)
Type: biochemical
Details: percent of the activity exhibited by mevinolin in the same protocol
Protocol: The intrinsic HMG-CoA reductase inhibition activity of the claimed compounds is measured in the in vitro protocol described is J. Med. Chem., 1985, 28, page 347.

C=C1C=C2C=C[C@H](C)[C@H](CC[C@@H](O)C[C@@H](O)CC(=O)O)C2[C@@H](OC(=O)C(C)CC)C1 (stereo partly shown)
relative inhibitory activity: 50%
